Laboratory results as given in patent US20070049564A1 (Wyeth, priority 2005, published 2007).
In brackets after ≈: the same amount, converted by molar mass. Like-named read-outs stand apart in the source and are kept apart here.

Columns and labels:
S. pneumoniae+ GC 4465 = assay: MIC, broth microdilution; details: Streptococcus pneumoniae, S. pneumoniae+ GC 4465
S. pyogenes GC 4563 = assay: MIC, broth microdilution; details: Streptococcus pyogenes, GC4563, S. pyogenes GC 4563
S. epidermidis GC 4935 = assay: MIC, broth microdilution; details: Staphylococcus epidermidis, GC4935, S. epidermidis GC 4935
S. aureus GC 1131 = assay: MIC, broth microdilution; details: Staphylococcus aureus, GC1131, S. aureus GC 1131
E. coli = assay: Range of MIC for E. coli strains; details: Escherichia coli
S. aureus GC 6466 = assay: MIC, broth microdilution; details: Staphylococcus aureus, GC6466, S. aureus GC 6466
S. aureus GC 1079 = assay: MIC, broth microdilution; details: Staphylococcus aureus, GC1079, S. aureus GC 1079
Method: (§1) Antimicrobial susceptibility testing. The in vitro activities of the antibiotics are determined by the broth microdilution method as recommended by the National Committee for Clinical Laboratory Standards (NCCLS) (1). Mueller-Hinton II broth (MHBII)(BBL Cockeysville, Md.) is the medium employed in the testing procedures. Microtiter plates containing serial dilutions of each antimicrobial agent are inoculated with each organism to yield the appropriate density (10^5 CFU/ml) in a 100 μl final volume. The plates are incubated for 18-22 hours at 35° C. in ambient air.
(§2) Representative compounds were first incubated in mouse serum for an hour prior to the in vitro testing against a panel of selected gram-positive and gram-negative bacteria strains. All compounds were also pre-incubated in water for an hour prior to testing as control. Representative compounds of Formula I were incubated in human serum prior to MIC determination.

E. coli GC 2234 = assay: MIC, broth microdilution; details: Escherichia coli, GC2234, E. coli GC 2234
S. aureus GC 6469 = assay: MIC, broth microdilution; details: Staphylococcus aureus, GC6469, S. aureus GC 6469
E. coli GC 2236 = assay: MIC, broth microdilution; details: Escherichia coli, GC2236, E. coli GC 2236
Staph. = assay: Range of MIC for Staph. strains, including MRSA; details: Staphylococcus aureus, MRSA
Method: as §1, §2

E. faecium GC 2243 = assay: MIC, broth microdilution; details: Enterococcus faecium, GC2243, E. faecium GC 2243
E. coli GC 1073 = assay: MIC, broth microdilution; details: Escherichia coli, GC1073, E. coli GC 1073
S. aureus GC 4536 = assay: MIC, broth microdilution; details: Staphylococcus aureus, GC4536, S. aureus GC 4536
E. faecalis GC 4555 = assay: MIC, broth microdilution; details: Enterococcus faecalis, GC4555, E. faecalis GC 4555
E. coli GC 2272 = assay: MIC, broth microdilution; details: Escherichia coli, GC2272, E. coli GC 2272
c. albicans GC 3066 = assay: MIC, broth microdilution
E. coli GC 2233 = assay: MIC, broth microdilution; details: Escherichia coli, GC2233, E. coli GC 2233
E. faecalis GC 2265 = assay: MIC, broth microdilution; details: Enterococcus faecalis, GC2265, E. faecalis GC 2265
Method: as §1
Representative compounds were first incubated in mouse serum for an hour prior to the in vitro testing against a panel of selected gram-positive and gram-negative bacteria strains. All compounds were also pre-incubated in water for an hour prior to testing as control.

E. coli GC 6465 = assay: MIC, broth microdilution; details: Escherichia coli, GC6465, E. coli GC 6465
[1] = 20 h, read-out: Range of MIC, E. coli (Mouse Serum)
[2] = read-out: Minimum inhibitory concentration (MIC), E. coli (mouse serum)
[3] = read-out: Minimum inhibitory concentration (MIC), E. coli (water)
[4] = read-out: Range of MIC, E. coli (Water)
[5] = read-out: Minimum inhibitory concentration (MIC), Staph. (mouse serum)
[6] = read-out: Minimum inhibitory concentration (MIC), Staph. (water)
[7] = read-out: Range of MIC, Staph (Mouse Serum)
[8] = read-out: Range of MIC, Staph (Water)
[9] = c. albicans GC 3066, Water pre-incubation

Compound: CCCCN(CC(=O)Nc1cc(N(C)C)c2c(c1O)C(=O)C1=C(O)[C@]3(O)C(=O)C(C(N)=O)=C(O)[C@@H](N(C)C)C3CC1C2)C(=O)OCOC(=O)C(C)C (stereo partly drawn) [Example 1, ({[(2-{[(7S,10aS)-9-(aminocarbonyl)-4,7-bis(dimethylamino)-1,8,10a,11-tetrahydroxy-10,12-dioxo-5,5a,6,6a,7,10,10a,12-octahydrotetracen-2-yl]amino}-2-oxoethyl)(butyl)amino]carbonyl}oxy)methyl 2-methylpropanoate]
- MIC (S. pneumoniae+ GC 4465; Mouse Serum pre-incubation): 2 mg/L (≈ 2.74 µM)
- MIC (S. pneumoniae+ GC 4465; Water pre-incubation): 2 mg/L (≈ 2.74 µM)
- MIC (S. pyogenes GC 4563; Mouse Serum pre-incubation): 0.25 mg/L (≈ 0.343 µM)
- MIC (S. pyogenes GC 4563; Water pre-incubation): 0.5 mg/L (≈ 0.685 µM)
- MIC (S. epidermidis GC 4935; Mouse Serum pre-incubation): 2 mg/L (≈ 2.74 µM)
- MIC (S. epidermidis GC 4935; Water pre-incubation): 8 mg/L (≈ 11 µM)
- MIC (S. aureus GC 1131; Mouse Serum pre-incubation): 1 mg/L (≈ 1.37 µM)
- MIC (S. aureus GC 1131; Water pre-incubation): 4 mg/L (≈ 5.48 µM)
- MIC (E. coli; [1]): 0.5 to 1 mg/L (≈ 0.685 to 1.37 µM)
- MIC (E. coli; [2]): 0.5 to 1 mg/L (≈ 0.685 to 1.37 µM)
- MIC (E. coli; [3]): 16 to 64 mg/L (≈ 21.9 to 87.7 µM)
- MIC (E. coli; [4]): 16 to 64 mg/L (≈ 21.9 to 87.7 µM)
- MIC (S. aureus GC 6466; Mouse Serum pre-incubation): 1 mg/L (≈ 1.37 µM)
- MIC (S. aureus GC 6466; Water pre-incubation): 1 mg/L (≈ 1.37 µM)
- MIC (S. aureus GC 1079; Mouse Serum pre-incubation): 2 mg/L (≈ 2.74 µM)
- MIC (S. aureus GC 1079; Water pre-incubation): 4 mg/L (≈ 5.48 µM)
- MIC (E. coli GC 2234; Mouse Serum pre-incubation): 0.5 mg/L (≈ 0.685 µM)
- MIC (E. coli GC 2234; Water pre-incubation): 16 mg/L (≈ 21.9 µM)
- MIC (S. aureus GC 6469; Mouse Serum pre-incubation): 2 mg/L (≈ 2.74 µM)
- MIC (S. aureus GC 6469; Water pre-incubation): 8 mg/L (≈ 11 µM)
- MIC (E. coli GC 2236; Mouse Serum pre-incubation): 1 mg/L (≈ 1.37 µM)
- MIC (E. coli GC 2236; Water pre-incubation): 16 mg/L (≈ 21.9 µM)
- MIC (Staph.; [5]): 1 to 4 mg/L (≈ 1.37 to 5.48 µM)
- MIC (Staph.; [6]): 1 to 8 mg/L (≈ 1.37 to 11 µM)
- MIC (Staph.; [7]): 1 to 4 mg/L (≈ 1.37 to 5.48 µM)
- MIC (Staph.; [8]): 1 to 8 mg/L (≈ 1.37 to 11 µM)
- MIC (E. faecium GC 2243; Mouse Serum pre-incubation): 1 mg/L (≈ 1.37 µM)
- MIC (E. faecium GC 2243; Water pre-incubation): 2 mg/L (≈ 2.74 µM)
- MIC (E. coli GC 1073; Mouse Serum pre-incubation): 1 mg/L (≈ 1.37 µM)
- MIC (E. coli GC 1073; Water pre-incubation): 32 mg/L (≈ 43.8 µM)
- MIC (S. aureus GC 4536; Mouse Serum pre-incubation): 2 mg/L (≈ 2.74 µM)
- MIC (S. aureus GC 4536; Water pre-incubation): 4 mg/L (≈ 5.48 µM)
- MIC (E. faecalis GC 4555; Mouse Serum pre-incubation): 1 mg/L (≈ 1.37 µM)
- MIC (E. faecalis GC 4555; Water pre-incubation): 4 mg/L (≈ 5.48 µM)
- MIC (E. coli GC 2272; Mouse Serum pre-incubation): 1 mg/L (≈ 1.37 µM)
- MIC (E. coli GC 2272; Water pre-incubation): 16 mg/L (≈ 21.9 µM)
- MIC (c. albicans GC 3066; Candida albicans, GC3066): > 64 mg/L
- MIC (c. albicans GC 3066; [9]): >64 UG/ML
- MIC (E. coli GC 2233; Mouse Serum pre-incubation): 1 mg/L (≈ 1.37 µM)
- MIC (E. coli GC 2233; Water pre-incubation): 16 mg/L (≈ 21.9 µM)
- MIC (E. faecalis GC 2265; Mouse Serum pre-incubation): 1 mg/L (≈ 1.37 µM)
- MIC (E. faecalis GC 2265; Water pre-incubation): 4 mg/L (≈ 5.48 µM)
- MIC (E. coli GC 6465; Mouse Serum pre-incubation): 8 mg/L (≈ 11 µM)
- MIC (E. coli GC 6465; Water pre-incubation): > 64 mg/L

Compound: CCCCN(CC(=O)Nc1cc(N(C)C)c2c(c1O)C(=O)C1=C(O)[C@]3(O)C(=O)C(C(N)=O)=C(O)[C@@H](N(C)C)C3CC1C2)C(=O)OCOC(=O)c1ccc(OC)cc1 (stereo partly drawn) [Example 2, ({[(2-{[(7S,10aS)-9-(aminocarbonyl)-4,7-bis(dimethylamino)-1,8,10a,11-tetrahydroxy-10,12-dioxo-5,5a,6,6a,7,10,10a,12-octahydrotetracen-2-yl]amino}-2-oxoethyl)(butyl)amino]carbonyl}oxy)methyl 4-methoxybenzoate]
- MIC (S. pneumoniae+ GC 4465; Mouse Serum pre-incubation): 2 mg/L (≈ 2.52 µM)
- MIC (S. pneumoniae+ GC 4465; Water pre-incubation): 4 mg/L (≈ 5.04 µM)
- MIC (S. pyogenes GC 4563; Mouse Serum pre-incubation): 0.25 mg/L (≈ 0.315 µM)
- MIC (S. pyogenes GC 4563; Water pre-incubation): 0.25 mg/L (≈ 0.315 µM)
- MIC (S. epidermidis GC 4935; Mouse Serum pre-incubation): 8 mg/L (≈ 10.1 µM)
- MIC (S. epidermidis GC 4935; Water pre-incubation): 8 mg/L (≈ 10.1 µM)
- MIC (S. aureus GC 1131; Mouse Serum pre-incubation): 2 mg/L (≈ 2.52 µM)
- MIC (S. aureus GC 1131; Water pre-incubation): 4 mg/L (≈ 5.04 µM)
- MIC (E. coli; [1]): 1 to 4 mg/L (≈ 1.26 to 5.04 µM)
- MIC (E. coli; [2]): 1 to 4 mg/L (≈ 1.26 to 5.04 µM)
- MIC (E. coli; [3]): 32 to 64 mg/L (≈ 40.3 to 80.6 µM)
- MIC (E. coli; [4]): 32 to 64 mg/L (≈ 40.3 to 80.6 µM)
- MIC (S. aureus GC 6466; Mouse Serum pre-incubation): 1 mg/L (≈ 1.26 µM)
- MIC (S. aureus GC 6466; Water pre-incubation): 2 mg/L (≈ 2.52 µM)
- MIC (S. aureus GC 1079; Mouse Serum pre-incubation): 8 mg/L (≈ 10.1 µM)
- MIC (S. aureus GC 1079; Water pre-incubation): 8 mg/L (≈ 10.1 µM)
- MIC (E. coli GC 2234; Mouse Serum pre-incubation): 1 mg/L (≈ 1.26 µM)
- MIC (E. coli GC 2234; Water pre-incubation): 64 mg/L (≈ 80.6 µM)
- MIC (S. aureus GC 6469; Mouse Serum pre-incubation): 2 mg/L (≈ 2.52 µM)
- MIC (S. aureus GC 6469; Water pre-incubation): 4 mg/L (≈ 5.04 µM)
- MIC (E. coli GC 2236; Mouse Serum pre-incubation): 4 mg/L (≈ 5.04 µM)
- MIC (E. coli GC 2236; Water pre-incubation): 32 mg/L (≈ 40.3 µM)
- MIC (Staph.; [5]): 1 to 8 mg/L (≈ 1.26 to 10.1 µM)
- MIC (Staph.; [6]): 2 to 8 mg/L (≈ 2.52 to 10.1 µM)
- MIC (Staph.; [7]): 1 to 8 mg/L (≈ 1.26 to 10.1 µM)
- MIC (Staph.; [8]): 2 to 8 mg/L (≈ 2.52 to 10.1 µM)
- MIC (E. faecium GC 2243; Mouse Serum pre-incubation): 1 mg/L (≈ 1.26 µM)
- MIC (E. faecium GC 2243; Water pre-incubation): 4 mg/L (≈ 5.04 µM)
- MIC (E. coli GC 1073; Mouse Serum pre-incubation): 4 mg/L (≈ 5.04 µM)
- MIC (E. coli GC 1073; Water pre-incubation): 64 mg/L (≈ 80.6 µM)
- MIC (S. aureus GC 4536; Mouse Serum pre-incubation): 2 mg/L (≈ 2.52 µM)
- MIC (S. aureus GC 4536; Water pre-incubation): 4 mg/L (≈ 5.04 µM)
- MIC (E. faecalis GC 4555; Mouse Serum pre-incubation): 2 mg/L (≈ 2.52 µM)
- MIC (E. faecalis GC 4555; Water pre-incubation): 4 mg/L (≈ 5.04 µM)
- MIC (E. coli GC 2272; Mouse Serum pre-incubation): 1 mg/L (≈ 1.26 µM)
- MIC (E. coli GC 2272; Water pre-incubation): 64 mg/L (≈ 80.6 µM)
- MIC (c. albicans GC 3066; Candida albicans, GC3066): > 64 mg/L
- MIC (c. albicans GC 3066; [9]): >64 UG/ML
- MIC (E. coli GC 2233; Mouse Serum pre-incubation): 1 mg/L (≈ 1.26 µM)
- MIC (E. coli GC 2233; Water pre-incubation): 64 mg/L (≈ 80.6 µM)
- MIC (E. faecalis GC 2265; Mouse Serum pre-incubation): 4 mg/L (≈ 5.04 µM)
- MIC (E. faecalis GC 2265; Water pre-incubation): 8 mg/L (≈ 10.1 µM)
- MIC (E. coli GC 6465; Mouse Serum pre-incubation): 8 mg/L (≈ 10.1 µM)
- MIC (E. coli GC 6465; Water pre-incubation): 64 mg/L (≈ 80.6 µM)
